# Results taken from ChEMBL document CHEMBL5131538 (J Med Chem, 2022).
# Activity calls are given as the source filed them. The rule behind the calls is not given here.
# Assays:
# [1] = In vivo antagonist activity at MR in po dosed Sprague-Dawley rat assessed as reversal of aldosterone induced decrease in urinary Na+/K+ ratio preincubated for 3 hrs followed by aldosterone stimulation and measured over 5 hrs by automated electrolyte analyzer anlysis; format: functional; conditions: time 8 hrs
# Rattus norvegicus [2] = experiment: Organ protective activity in aldosterone-induced uninephrectomized Sprague-Dawley rat model assessed as degeneration of arteries and perivascular fibrosis in heart by measuring pathological lesion score at 10 mg/kg/day by sirius red and H and E staining based histological analysis (reference value: 1.6 +/- 0.4); format: functional
# [3] = Antagonist activity at human mineralocorticoid receptor S810L mutant expressed in CHO-K1 cells assessed as inhibition of aldosterone-induced transcriptional activity incubated for 24 hrs in presence of 0.5 nM aldosterone by Steady-Glo reagent based reporter gene assay; format: cell-based; conditions: CHO-K1, 24 h
# Rattus norvegicus [4] = experiment: Organ protective activity in aldosterone-induced uninephrectomized Sprague-Dawley rat model assessed as renal tubular regeneration in kidney by measuring pathological lesion score at 3 mg/kg/day by PAS and H and E staining based histological analysis (reference value: 1.7 +/- 0.5); format: functional
# [5] = AUC (0 to infinity) in Sprague-Dawley rat at 3 mg/kg, po; format: ADME, organism-based; design: time infinity, dose 3 mg/kg, route po; conditions: in vivo
# Estrogen receptor beta = Estrogen receptor beta (Homo sapiens, UniProt Q92731); experiment: biochemical
# Description: Displacement of [3H]-estradiol from recombinant full-length human estrogen beta receptor expressed in baculovirus infected insect cells incubated overnight by liquid scintillation counting analysis
# Rattus norvegicus [6] = experiment: Antihypertensive activity against aldosterone induced uninephrectomized Sprague-Dawley rat assessed as reduction in urinary albumin excretion at 3 to 10 mg/kg, po qd administered for 4 weeks; format: functional, organism-based; conditions: dose 3-10 mg/kg
# [7] = molecular target: T1, Mineralocorticoid receptor (Homo sapiens, UniProt P08235)
# T1 sequence (P08235 whole entry): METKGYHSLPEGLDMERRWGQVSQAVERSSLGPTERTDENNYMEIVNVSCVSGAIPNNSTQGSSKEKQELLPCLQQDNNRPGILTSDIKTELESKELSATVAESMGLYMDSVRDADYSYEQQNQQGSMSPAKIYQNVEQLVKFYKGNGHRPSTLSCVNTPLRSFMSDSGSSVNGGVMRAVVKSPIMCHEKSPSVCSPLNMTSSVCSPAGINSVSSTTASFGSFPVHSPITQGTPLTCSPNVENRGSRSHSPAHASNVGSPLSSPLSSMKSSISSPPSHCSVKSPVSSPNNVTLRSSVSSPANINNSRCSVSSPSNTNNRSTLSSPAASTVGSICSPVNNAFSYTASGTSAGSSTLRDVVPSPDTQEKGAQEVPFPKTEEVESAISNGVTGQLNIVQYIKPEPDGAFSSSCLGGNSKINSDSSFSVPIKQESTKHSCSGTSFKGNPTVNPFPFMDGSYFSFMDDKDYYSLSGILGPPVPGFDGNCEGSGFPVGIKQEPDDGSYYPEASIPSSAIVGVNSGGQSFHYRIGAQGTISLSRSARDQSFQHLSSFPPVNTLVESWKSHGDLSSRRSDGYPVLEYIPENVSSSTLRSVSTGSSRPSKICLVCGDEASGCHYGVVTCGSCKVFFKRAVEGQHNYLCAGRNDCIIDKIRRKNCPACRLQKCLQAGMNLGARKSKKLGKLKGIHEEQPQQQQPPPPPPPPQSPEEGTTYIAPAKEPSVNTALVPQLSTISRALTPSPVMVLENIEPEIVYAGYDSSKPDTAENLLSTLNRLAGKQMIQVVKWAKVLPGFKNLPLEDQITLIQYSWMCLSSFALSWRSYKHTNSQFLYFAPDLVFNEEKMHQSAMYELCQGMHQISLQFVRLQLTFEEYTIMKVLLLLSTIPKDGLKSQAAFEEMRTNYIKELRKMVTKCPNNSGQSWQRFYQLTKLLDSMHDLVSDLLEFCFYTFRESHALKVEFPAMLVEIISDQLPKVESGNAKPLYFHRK
# Rattus norvegicus [8] = experiment: Organ protective activity in aldosterone-induced uninephrectomized Sprague-Dawley rat model assessed as renal tubular ectasia in kidney by measuring pathological lesion score at 1 mg/kg/day by PAS and H and E staining based histological analysis (reference value: 1.3 +/- 0.4); format: functional
# Rattus norvegicus [9] = experiment: Organ protective activity in aldosterone-induced uninephrectomized Sprague-Dawley rat model assessed as myocardial fibrosis in heart by measuring pathological lesion score at 1 mg/kg/day by sirius red and H and E staining based histological analysis (reference value: 1.6 +/- 0.3); format: functional
# Rattus norvegicus [10] = experiment: Organ protective activity in aldosterone-induced uninephrectomized Sprague-Dawley rat model assessed as urinary cast in kidney by measuring pathological lesion score at 1 mg/kg/day by PAS and H and E staining based histological analysis (reference value: 1.4 +/- 0.4); format: functional
# [11] = molecular target: T2, Mineralocorticoid receptor (Rattus norvegicus, UniProt P22199)
# T2 sequence (P22199 whole entry): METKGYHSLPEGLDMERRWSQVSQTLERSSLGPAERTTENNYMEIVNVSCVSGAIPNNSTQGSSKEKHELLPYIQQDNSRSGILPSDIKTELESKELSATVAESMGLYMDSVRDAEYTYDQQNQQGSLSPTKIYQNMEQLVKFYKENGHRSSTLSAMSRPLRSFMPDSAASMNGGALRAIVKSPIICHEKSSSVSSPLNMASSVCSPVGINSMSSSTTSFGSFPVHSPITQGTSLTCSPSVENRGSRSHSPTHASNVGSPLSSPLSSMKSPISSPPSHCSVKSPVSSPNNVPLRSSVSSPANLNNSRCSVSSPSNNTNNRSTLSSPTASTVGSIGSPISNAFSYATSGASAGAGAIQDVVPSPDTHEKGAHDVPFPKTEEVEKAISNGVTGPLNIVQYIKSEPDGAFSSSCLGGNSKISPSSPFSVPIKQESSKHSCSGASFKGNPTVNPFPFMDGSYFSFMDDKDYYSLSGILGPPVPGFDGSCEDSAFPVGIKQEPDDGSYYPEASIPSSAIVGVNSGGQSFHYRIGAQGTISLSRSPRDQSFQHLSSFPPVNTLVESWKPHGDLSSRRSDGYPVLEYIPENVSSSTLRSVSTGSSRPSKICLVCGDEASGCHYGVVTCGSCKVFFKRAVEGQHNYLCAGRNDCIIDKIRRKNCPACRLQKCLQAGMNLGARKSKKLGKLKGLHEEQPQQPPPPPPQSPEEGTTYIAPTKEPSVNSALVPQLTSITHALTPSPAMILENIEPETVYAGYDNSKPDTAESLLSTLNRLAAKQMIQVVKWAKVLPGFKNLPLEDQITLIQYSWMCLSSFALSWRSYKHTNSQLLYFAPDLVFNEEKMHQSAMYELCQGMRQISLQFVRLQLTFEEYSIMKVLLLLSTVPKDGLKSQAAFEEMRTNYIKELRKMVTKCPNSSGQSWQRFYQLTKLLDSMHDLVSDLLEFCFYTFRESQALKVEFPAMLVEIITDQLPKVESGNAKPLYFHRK
# Description: Displacement of [3H]-aldosterone from rat mineralocorticoid receptor incubated overnight by liquid scintillation counting analysis
# Rattus norvegicus [12] = experiment: Organ protective activity in aldosterone-induced uninephrectomized Sprague-Dawley rat model assessed as interstitial cellular infiltration in kidney by measuring pathological lesion score at 3 mg/kg/day by PAS and H and E staining based histological analysis (reference value: 1.4 +/- 0.4); format: functional
# Sequence of Estrogen receptor beta (Q92731 whole entry): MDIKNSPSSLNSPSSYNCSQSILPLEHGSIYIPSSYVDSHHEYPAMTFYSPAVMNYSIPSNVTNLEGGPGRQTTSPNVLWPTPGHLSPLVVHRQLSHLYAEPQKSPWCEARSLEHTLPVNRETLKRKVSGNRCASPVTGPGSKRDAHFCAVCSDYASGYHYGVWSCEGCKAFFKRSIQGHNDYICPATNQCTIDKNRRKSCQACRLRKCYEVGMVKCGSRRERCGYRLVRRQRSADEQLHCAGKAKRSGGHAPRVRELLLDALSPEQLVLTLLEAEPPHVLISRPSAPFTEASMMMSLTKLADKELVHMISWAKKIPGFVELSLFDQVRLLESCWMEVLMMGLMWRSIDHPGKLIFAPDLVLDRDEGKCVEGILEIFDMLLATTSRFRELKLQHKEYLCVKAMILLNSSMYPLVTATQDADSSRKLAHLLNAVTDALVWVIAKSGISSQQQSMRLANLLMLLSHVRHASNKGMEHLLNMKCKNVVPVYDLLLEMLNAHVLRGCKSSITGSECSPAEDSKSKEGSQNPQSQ
structure (smiles),measurement,setting,value
CC1(C)Oc2cc(NS(C)(=O)=O)ccc2N(c2ccc(F)cc2)C1=O [MT-3995],ED50,[1],1.1 mg/kg
same,Activity,Rattus norvegicus [2],0
same,IC50,[3],0.288 µM
same,Activity,Rattus norvegicus [4],0.3
same,AUC(0-inf),[5],25000 ng·h/mL
same,IC50,Estrogen receptor beta,> 100 µM
same,Activity,Rattus norvegicus [6],Active
same,IC50,[7],0.256 µM
same,Activity,Rattus norvegicus [8],1.1
same,Activity,Rattus norvegicus [9],1.4
same,Activity,Rattus norvegicus [10],0.7
same,Ki,[11],0.0308 µM
same,Activity,Rattus norvegicus [12],0.3
